In brackets after ≈: the same amount, converted by molar mass. Activity calls are given as the source filed them. No cut-off for these calls is given here.
Assays:
[1] = Inhibition of Cu2+ induced human LDL oxidation; assay type: functional
[2] = tested on: Escherichia coli; test: Antimicrobial activity against Escherichia coli ATCC 11229 at 500 ug/mL after 24 hrs by MTT assay; assay type: functional, organism-based
[3] = tested on: Staphylococcus aureus; test: Antimicrobial activity against Staphylococcus aureus ATCC 6538 at 500 ug/mL after 24 hrs by MTT assay; assay type: functional, organism-based
[4] = tested on: Bacillus subtilis; test: Antimicrobial activity against Bacillus subtilis ATCC 6633 at 500 ug/mL after 24 hrs by MTT assay; assay type: functional, organism-based
[5] = tested on: Escherichia coli; test: Antimicrobial activity against Escherichia coli ATCC 11229 after 24 hrs by MTT assay; assay type: functional; conditions: ATCC 11229, 24 h
[6] = tested on: Staphylococcus aureus; test: Antimicrobial activity against Staphylococcus aureus ATCC 6538 after 24 hrs by MTT assay; assay type: functional; conditions: ATCC 6538, 24 h
[7] = tested on: Bacillus subtilis; test: Antimicrobial activity against Bacillus subtilis ATCC 6633 after 24 hrs by MTT assay; assay type: functional; conditions: ATCC 6633, 24 h

For O=C(/C=C/c1ccc(O)c(O)c1)O[C@@H]1C[C@](O)(C(=O)O)C[C@@H](OC(=O)/C=C/c2ccc(O)c(O)c2)[C@H]1O, which Activity [1] is on record?
Its Activity is “Dose-dependent effect”.

With O=C1C=CC(O)(CC(=O)O[C@H]2[C@H](OC(=O)/C=C/c3ccc(O)c(O)c3)C[C@](O)(C(=O)O)C[C@H]2OC(=O)/C=C/c2ccc(O)c(O)c2)C=C1 as the compound, how does the Activity [2] read?
The Activity was “inactive”.

And the Activity [3]?
Its Activity is “inactive”.

And the Activity [4]?
Its Activity is “inactive”.

For CN[C@@H]1[C@H](O[C@H]2[C@H](O[C@H]3[C@H](O)[C@@H](O)[C@H](N=C(N)N)[C@@H](O)[C@@H]3N=C(N)N)O[C@@H](C)[C@]2(O)C=O)O[C@@H](CO)[C@H](O)[C@H]1O (stereo in doubt) [STREPTOMYCIN], which MIC [5] is on record?
The MIC was 12.5 µg/mL (≈ 21.5 µM).

And the MIC [6]?
The MIC was 12.5 µg/mL (≈ 21.5 µM).

What about the MIC [7] of the same compound?
The MIC was 12.5 µg/mL (≈ 21.5 µM).

For O=C(C=Cc1ccc(O)c(O)c1)O[C@@H]1C[C@](O)(C(=O)O)C[C@@H](O)[C@H]1O, which Activity [1] is on record?
Its Activity is “Dose-dependent effect”.

— ChEMBL document CHEMBL1141281, “Targeted natural product isolation guided by HPLC-SPE-NMR: constituents of Hubertia species” (2007)
